Experiment [1] deals with T1, NLRP3 (Homo sapiens, UniProt Q96P20). As to the kind of experiment: THP-1 cells pyroptosis assay (LPS + nigericin, resazurin readout). As to conditions: NLRP3 inhibitory activity, 1.0 μg/ml LPS, 5 μM nigericin. On the set-up: Seed THP-1 cells (25,000 cells/well) containing 1.0 μg/ml LPS in 40 μl of RPMI medium; host or cells: THP-1 cells. It is filed as cell-based. The method, then:
THP-1 cells (ATCC #TIB-202) were grown in RPMI containing L-glutamine (Gibco #11835) supplemented with 1 mM sodium pyruvate (Sigma #S8636) and penicillin (100 units/ml)/streptomycin (0.1 mg/ml) (Sigma #P4333) in 10% Fetal Bovine Serum (FBS) (Sigma #F0804). The cells were routinely passaged and grown to confluency (˜10^6 cells/ml). On the day of the experiment, THP-1 cells were harvested and resuspended into RPMI medium (without FBS). The cells were then counted and viability (>90%) checked by Trypan blue (Sigma #T8154). Appropriate dilutions were made to give a concentration of 625,000 cells/ml. To this diluted cell solution was added LPS (Sigma #L4524) to give a […] Final Assay Concentration (FAC). 40 μl of the final preparation was aliquoted into each well of a 96-well plate. The plate thus prepared was used for compound screening.
The following method step-by-step assay was followed for compound screening. • 1. Seed THP-1 cells (25,000 cells/well) containing 1.0 μg/ml LPS in 40 μl of RPMI medium (without FBS) in 96-well, black walled, clear bottom cell culture plates coated with poly-D-lysine (VWR #734-0317) • 2. Add 5 μl compound (8 points half-log dilution, with 10 μM top dose) or vehicle (DMSO 0.1% FAC) to the appropriate wells • 3. Incubate for 3 hrs at 37° C. in 5% CO2 • 4. Add 5 μl nigericin (Sigma #N7143) (FAC 5 μM) to all wells • 5. Incubate for 1 hr at 37° C. and 5% CO2 • 6. At the end of the incubation period, spin plates at 300×g for 3 mins and remove supernatant • 7. Then add 50 μl of resazurin (Sigma #R7017) (FAC 100 μM resazurin in RPMI medium without FBS) and incubate plates for a further 1-2 hrs at 37° C. and 5% CO2 • 8. Plates were read in an Envision reader at Ex 560 nm and Em 590 nm • 9. IC50 data is fitted to a non-linear regression equation (log inhibitor vs response-variable slope 4-parameters)

For experiment [2], the target named is T1, NLRP3. As to the kind of experiment: Human whole blood IL1β release assay (LPS + nigericin, AlphaLisa IL-1β). It is filed as cell-based. On the set-up: Human whole blood in Li-heparin tubes was obtained from healthy donors from a volunteer donor panel; from tissue; host or cells: human whole blood from healthy donors. As to conditions: NLRP3 inhibitory activity, 1 μg/ml LPS, 10 μM nigericin, IL-1β release, read-out: HWB IC50. How it is done:
For systemic delivery, the ability to inhibit NLRP3 when the compounds are present within the bloodstream is of great importance. For this reason, the NLRP3 inhibitory activity of a number of compounds in human whole blood was investigated in accordance with the following protocol.
Human whole blood in Li-heparin tubes was obtained from healthy donors from a volunteer donor panel. • 1. Plate out 80 μl of whole blood containing 1 μg/ml of LPS in 96-well, clear bottom cell culture plate (Corning #3585) • 2. Add 10 μl compound (8 points half-log dilution with 10 μM top dose) or vehicle (DMSO 0.1% FAC) to the appropriate wells • 3. Incubate for 3 hrs at 37° C., 5% CO2 • 4. Add 10 μl Nigericin (Sigma #N7143) (10 μM FAC) to all wells • 5. Incubate for 1 hr at 37° C., 5% CO2 • 6. At the end of the incubation period, spin plates at 300×g for 5 mins to pellet cells and remove 20 μl of supernatant and add to 96-well v-bottom plates for IL-1β analysis (note: these plates containing the supernatants can be stored at −80° C. to be analysed at a later date) • 7. IL-1β was measured according to the manufacturer protocol (Perkin Elmer-AlphaLisa IL-1β Kit AL220F-5000) • 8. IC50 data is fitted to a non-linear regression equation (log inhibitor vs response-variable slope 4-parameters)

Consider 19 compounds from US11542255B2, “Sulfonylureas and sulfonylthioureas as NLRP3 inhibitors” (Inflazome Limited, priority 2017, dated 2023).

Structures can show the parent of a compound that is named as a salt. Where only a bound is given, the exact number is not on record here.

T1 sequence (Q96P20 whole entry): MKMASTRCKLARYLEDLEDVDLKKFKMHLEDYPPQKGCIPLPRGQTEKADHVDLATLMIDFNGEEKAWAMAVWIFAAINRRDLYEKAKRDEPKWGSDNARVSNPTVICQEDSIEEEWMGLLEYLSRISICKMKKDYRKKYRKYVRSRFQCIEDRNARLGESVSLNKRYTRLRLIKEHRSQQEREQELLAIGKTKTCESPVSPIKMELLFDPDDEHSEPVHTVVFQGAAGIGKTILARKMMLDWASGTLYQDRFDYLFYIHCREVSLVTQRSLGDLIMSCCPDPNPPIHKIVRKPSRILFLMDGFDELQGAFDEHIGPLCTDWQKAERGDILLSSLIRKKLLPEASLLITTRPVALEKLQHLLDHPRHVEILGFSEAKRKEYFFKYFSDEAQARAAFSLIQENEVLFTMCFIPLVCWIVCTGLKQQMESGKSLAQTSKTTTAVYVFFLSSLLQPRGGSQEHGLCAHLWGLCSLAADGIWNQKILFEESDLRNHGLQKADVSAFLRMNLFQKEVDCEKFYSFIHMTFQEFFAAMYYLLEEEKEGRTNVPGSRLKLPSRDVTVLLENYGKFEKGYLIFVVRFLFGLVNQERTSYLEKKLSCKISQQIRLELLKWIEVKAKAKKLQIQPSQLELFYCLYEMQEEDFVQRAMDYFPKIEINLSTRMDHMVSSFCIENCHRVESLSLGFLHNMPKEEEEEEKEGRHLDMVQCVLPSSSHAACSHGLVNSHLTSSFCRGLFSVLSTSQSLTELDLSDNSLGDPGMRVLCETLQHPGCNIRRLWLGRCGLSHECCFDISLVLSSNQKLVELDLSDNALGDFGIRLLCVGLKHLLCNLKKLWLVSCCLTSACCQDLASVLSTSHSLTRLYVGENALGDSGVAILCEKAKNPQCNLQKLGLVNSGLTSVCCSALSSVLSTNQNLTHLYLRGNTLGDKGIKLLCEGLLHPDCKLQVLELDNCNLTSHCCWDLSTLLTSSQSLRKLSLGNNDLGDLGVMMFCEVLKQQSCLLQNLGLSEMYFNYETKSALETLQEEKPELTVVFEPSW

For the compound `CC(c1cc(S(=O)(=O)NC(=O)Nc2c3c(cc4c2CCC4)CCC3)nn1C)N(C)C` (single isomer, unassigned; enantiomer 2) [Example 70, 5-(1-(Dimethylamino)ethyl)-N-((1,2,3,5,6,7-hexahydro-s-indacen-4-yl)carbamoyl)-1-methyl-1H-pyrazole-3-sulfonamide, Enantiomer 2], the IC50 on NLRP3 [1] is < 40 nM; at NLRP3 [2], < 400 nM.

Regarding `CN1CCn2nc(S(=O)(=O)NC(=O)Nc3c4c(cc5c3CCC5)CCC4)cc2C1` [Example 5, N-((1,2,3,5,6,7-Hexahydro-s-indacen-4-yl)carbamoyl)-5-methyl-4,5,6,7-tetrahydropyrazolo[1,5-a]pyrazine-2-sulfonamide], the concentration for half-maximal inhibition (IC50) at NLRP3 [1] was 160 to 640 nM; at NLRP3 [2], 1600 to 3200 nM.

On to `CC(C)c1cc(S(=O)(=O)NC(=O)Nc2c3c(cc4c2CCC4)CCC3)nn1CCN(C)C` [Example 6, 1-(2-(Dimethylamino)ethyl)-N-((1,2,3,5,6,7-hexahydro-s-indacen-4-yl)carbamoyl)-5-isopropyl-1H-pyrazole-3-sulfonamide], for which the results for the IC50 on NLRP3 [1] and at NLRP3 [2] were 160 to 640 nM and 800 to 1600 nM, respectively.

As for `CCn1nc(S(=O)(=O)NC(=O)Nc2c(-c3ccnc(OC)c3)ccc3c2CCC3)cc1CN(C)C` [Example 17, 5-((Dimethylamino)methyl)-1-ethyl-N-((5-(2-methoxypyridin-4-yl)-2,3-dihydro-1H-inden-4-yl)carbamoyl)-1H-pyrazole-3-sulfonamide], the IC50 at NLRP3 [1] is < 40 nM; at NLRP3 [2], < 400 nM.

`CCn1nc(S(=O)(=O)NC(=O)Nc2c(-c3cccnc3)cc(F)c3c2CCC3)cc1CN(C)C` [Example 20, 5-((Dimethylamino)methyl)-1-ethyl-N-((7-fluoro-5-(pyridin-3-yl)-2,3-dihydro-1H-inden-4-yl)carbamoyl)-1H-pyrazole-3-sulfonamide]: the IC50 at NLRP3 [1] is < 40 nM; on NLRP3 [2] it was < 400 nM.

With `CCn1nc(S(=O)(=O)NC(=O)Nc2c(-c3ccnc(OC)c3)cc(F)c3c2CCC3)cc1CN(C)C` [Example 21, 5-((Dimethylamino)methyl)-1-ethyl-N-((7-fluoro-5-(2-methoxypyridin-4-yl)-2,3-dihydro-1H-inden-4-yl)carbamoyl)-1H-pyrazole-3-sulfonamide], the IC50 is < 40 nM at NLRP3 [1] and < 400 nM at NLRP3 [2].

As to `CC(c1cc(S(=O)(=O)NC(=O)Nc2c3c(cc4c2CCC4)CCC3)nn1C1CC1)N(C)C` (centres unmarked) [Example 22, 1-Cyclopropyl-5-(1-(dimethylamino)ethyl)-N-((1,2,3,5,6,7-hexahydro-s-indacen-4-yl)carbamoyl)-1H-pyrazole-3-sulfonamide], the figures for the IC50 on NLRP3 [1] and at NLRP3 [2] were < 40 nM and 400 to 800 nM, respectively.

For the compound `CCC(c1cc(S(=O)(=O)NC(=O)Nc2c3c(cc4c2CCC4)CCC3)nn1C1CC1)N1CCC1` (centres unmarked) [Example 23, 5-(1-(Azetidin-1-yl)propyl)-1-cyclopropyl-N-((1,2,3,5,6,7-hexahydro-s-indacen-4-yl)carbamoyl)-1H-pyrazole-3-sulfonamide], the results for the half-maximal inhibitory concentration (IC50) at NLRP3 [1] and on NLRP3 [2] were < 40 nM and < 400 nM, respectively.

With `CC1CN(C(C)c2cc(S(=O)(=O)NC(=O)Nc3c4c(cc5c3CCC5)CCC4)nn2C)C1` (centres unmarked) [Example 29, N-((1,2,3,5,6,7-Hexahydro-s-indacen-4-yl)carbamoyl)-1-methyl-5-(1-(3-methylazetidin-1-yl)ethyl)-1H-pyrazole-3-sulfonamide], the IC50 on NLRP3 [1] was 40 to 160 nM; at NLRP3 [2], 400 to 800 nM.

Regarding `CN(C)Cc1cc(S(=O)(=O)NC(=O)Nc2c3c(cc4c2CCC4)CCC3)nn1CC(C)(C)C` [Example 31, 5-((Dimethylamino)methyl)-N-((1,2,3,5,6,7-hexahydro-s-indacen-4-yl)carbamoyl)-1-neopentyl-1H-pyrazole-3-sulfonamide], the values for the IC50 on NLRP3 [1] and at NLRP3 [2] were 40 to 160 nM and 400 to 800 nM, respectively.

As for `CC(C)n1nc(S(=O)(=O)NC(=O)Nc2c3c(cc4c2CCC4)CCC3)cc1C1(N(C)C)CC1` [Example 32, 5-(1-(Dimethylamino)cyclopropyl)-N-((1,2,3,5,6,7-hexahydro-s-indacen-4-yl)carbamoyl)-1-isopropyl-1H-pyrazole-3-sulfonamide], the IC50 on NLRP3 [1] was 40 to 160 nM; on NLRP3 [2] it was 400 to 800 nM.

With `CC(C)n1nc(S(=O)(=O)NC(=O)Nc2c3c(cc4c2CCC4)CCC3)cc1CCN(C)C` [Example 33, 5-(2-(Dimethylamino)ethyl)-N-((1,2,3,5,6,7-hexahydro-s-indacen-4-yl)carbamoyl)-1-isopropyl-1H-pyrazole-3-sulfonamide, Sodium Salt], the IC50 on NLRP3 [1] was 160 to 640 nM; on NLRP3 [2] it was 400 to 800 nM.

Regarding `CN(C)C(C)(C)c1cc(S(=O)(=O)NC(=O)Nc2c3c(cc4c2CCC4)CCC3)nn1C` [Example 34, 5-(2-(Dimethylamino)propan-2-yl)-N-((1,2,3,5,6,7-hexahydro-s-indacen-4-yl)carbamoyl)-1-methyl-1H-pyrazole-3-sulfonamide], the IC50 on NLRP3 [1] is 40 to 160 nM; on NLRP3 [2], 400 to 800 nM.

With `CCn1nc(S(=O)(=O)NC(=O)Nc2c(-c3ccnc(C#N)c3)cc(F)cc2C(C)C)cc1CN(C)C` [Example 35, N-((2-(2-Cyanopyridin-4-yl)-4-fluoro-6-isopropylphenyl)carbamoyl)-5-((dimethylamino)methyl)-1-ethyl-1H-pyrazole-3-sulfonamide], the IC50 was 40 to 160 nM at NLRP3 [1] and < 400 nM at NLRP3 [2].

Regarding `CC(C)c1cc(F)cc(-c2ccnc(C#N)c2)c1NC(=O)NS(=O)(=O)c1cc(CN(C)C)n(C)n1` [Example 36, N-((2-(2-Cyanopyridin-4-yl)-4-fluoro-6-isopropylphenyl)carbamoyl)-5-((dimethylamino)methyl)-1-methyl-1H-pyrazole-3-sulfonamide], the IC50 on NLRP3 [1] is 40 to 160 nM; at NLRP3 [2], < 400 nM.

`CN(C)Cc1cc(S(=O)(=O)NC(=O)Nc2c3c(cc4c2CCC4)CCC3)nn1C(C)(C)C` [Example 37, 1-(tert-Butyl)-5-((dimethylamino)methyl)-N-((1,2,3,5,6,7-hexahydro-s-indacen-4-yl)carbamoyl)-1H-pyrazole-3-sulfonamide]: the IC50 is < 40 nM on NLRP3 [1] and 3200 to 10000 nM at NLRP3 [2].

With `CC(C)(C)n1nc(S(=O)(=O)NC(=O)Nc2c3c(cc4c2CCC4)CCC3)cc1CN1CCC1` [Example 38, 5-(Azetidin-1-ylmethyl)-1-(tert-butyl)-N-((1,2,3,5,6,7-hexahydro-s-indacen-4-yl)carbamoyl)-1H-pyrazole-3-sulfonamide], the IC50 at NLRP3 [1] lay within 40 to 160 nM; at NLRP3 [2], 1600 to 3200 nM.

Regarding `CC(C)c1cc(F)cc(-c2ccccc2)c1NC(=O)NS(=O)(=O)c1cc(CN(C)C)n(C(C)C)n1` [Example 39, 5-((Dimethylamino)methyl)-N-((5-fluoro-3-isopropyl-[1,1′-biphenyl]-2-yl)carbamoyl)-1-isopropyl-1-H-pyrazole-3-sulfonamide], the IC50 on NLRP3 [1] fell in the range of 640 to 2560 nM; at NLRP3 [2], 1600 to 3200 nM.

Turning to `Cc1cc(-c2cc(F)cc(C(C)C)c2NC(=O)NS(=O)(=O)c2cc(CN(C)C)n(C)n2)n(C)n1` [Example 40, N-((2-(1,3-Dimethyl-1H-pyrazol-5-yl)-4-fluoro-6-isopropylphenyl)carbamoyl)-5-((dimethylamino)methyl)-1-methyl-1H-pyrazole-3-sulfonamide], the IC50 on NLRP3 [1] lay in the range of 160 to 640 nM; on NLRP3 [2], 400 to 800 nM.
